# Measurements from patent publication US12630524B2, “Pleuromutilin in derivatives for treating viral infections” (ARIVA MED GMBH, priority 2020, dated 2026).
# Like-named read-outs stand apart in the source and are kept apart here.
# What was measured:
# [1] = system: Staphylococcus aureus ATCC49951; assay: Broth microdilution MIC (CLSI)
# [2] = system: Staphylococcus aureus cfr (+); assay: Broth microdilution MIC (CLSI)
# [3] = system: Staphylococcus aureus vga(A) (+); assay: Broth microdilution MIC (CLSI)
# [4] = system: Streptococcus pneumoniae ATCC49619; assay: Broth microdilution MIC (CLSI)
# [5] = system: Streptococcus agalactiae lsa(E); assay: Broth microdilution MIC (CLSI)
# [6] = system: alpha coronavirus 229E (HCoV-229E or CoV229E); assay: Anti-coronavirus cytoprotection assay (inhibition of virus-induced CPE); type: cell-based, human corona virus (CoV229E); details: for reduction of viral CPE: MRC-5 / CoV229E; for EC50: Human coronavirus 229E, MRC5, 144 h
# Procedure: Objective: The assay measured the inhibition of virus-induced cytopathic effects (CPE) and cell viability following alpha coronavirus 229E (HCoV-229E or CoV229E) in MRC-5 cells 6 days post infections with the virus by various concentrations of the investigated compounds.
# Following incubation at 37° C. and at 5% CO2 for 6 days, cell viability was measured by XTT tetrazolium dye staining. The optical density of the cell culture plate was determined spectrophotometrically at 450 and 650 nm. Percent reduction of the virus-infected cells and the percent cell viability of uninfected drug control wells were calculated to determine the effective concentration at which 50% of cytopathic effect was inhibited (EC50) and the cytotoxic concentration (TC50) using four parameter curve fit analysis. The antiviral compound Remdesivir served as positive control.
# [7] = system: human respiratory syncytial virus (strain RSVA2); assay: Anti-RSV cytoprotection assay (strain RSVA2); type: cell-based; details: for reduction of viral CPE: HEp2 / RSVA2; for EC50: human respiratory syncytial virus, HEp-2, 144 h, HEp2 cells infected with RSVA2, 6 days post infection, XTT
# [8] = Cell viability of uninfected HEp2 drug control wells (XTT), RSVA2 assay; type: cell-based, human; details: human, HEp2 cells (uninfected drug control wells); HEp2 cells, RSVA2 assay; read-out: TC50
# [9] = system: HEp2 cells; assay: as above; type: cell-based, human; details: HEp2
# [10] = system: respiratory syncytial virus (RSV ALONG); assay: Anti-RSV cytoprotection assay, strain RSV ALONG; type: cell-based
# [11] = system: respiratory syncytial virus (RSV B18537); assay: Anti-RSV cytoprotection assay, strain RSV B18537; type: cell-based
# [12] = Cellular toxicity to HEp2 cells, RSV ALONG / RSV B18537 assays; type: cell-based; details: human, RSV ALONG table, read-out: TC50 (the source's name)
# [13] = system: Measles virus strain Edmonston; assay: microbe, parasite or virus in culture; type: cell-based; details: for EC50: Measles morbillivirus, HeLa
# [14] = system: MRC-5 cells; details: for cytotoxic effect on the viability of the cell control: MRC-5
# [15] = in vitro; details: human
# [16] = in vitro; details: human; remark: listed apart in the source
# [17] = Metabolic stability in primary mouse hepatocytes; details: 1 μg/mL, 4 hours, 37° C.
# [18] = Metabolic stability in primary human hepatocytes; details: 1 μg/mL, 4 hours, 37° C.
# [19] = system: influenza A virus strain (PR8); details: influenza A PR8, concentration of 2 mg/mL; cited from earlier work
# [20] = system: polio virus; details: cited from earlier work
# [21] = system: herpes simplex type 1 (HSV-1) virus; details: cited from earlier work
# [22] = system: vesicular stomatitis virus (VSV); details: cited from earlier work
# [23] = system: HeLa cells; assay: Cellular toxicity to HeLa cells, measles assay; details: Ribavirin in μg/mL
# [24] = system: influenza A virus, porcine reproductive and respiratory syndrome virus (PRRSV) type 1 and 2; details: viral up-take assay 4 hours post inoculation, WO 2009/106839; cited from earlier work
# [25] = Staphylococcus aureus cfr (+) (n = 2), Lefamulin resistant
# [26] = Staphylococcus aureus vga(A) (+), Lefamulin resistant
# [27] = Streptococcus agalactiae lsa(E) (n = 2), Lefamulin resistant
# [28] = MRC-5 cells infected with CoV229E, 6 days post infection, XTT, read-out: EC50
# [29] = Staphylococcus aureus, ATCC49951
molecule,measurement,setting,value
"12-epi-12-desvinyl-14-O-[(azepan-4-ylsulfanyl)-acetyl]-12-((E)-2-pyridin-3-yl-ethenyl) mutilin hydrochloride [Example 154, reference compound]",MIC,"[1]; Staphylococcus aureus ATCC49951, CAMHB",≤0.03 µg/mL
same,MIC,[2]; [25],0.5 to 4 µg/mL
same,MIC,[3]; [26],2 to 4 µg/mL
same,MIC,[4],≤0.03 µg/mL
same,MIC,[5]; [27],4 to 8 µg/mL
"Cc1nccnc1/C=C/[C@@]1(C)C[C@@H](OC(=O)CSC2CCNCC2)[C@]2(C)[C@H](C)CC[C@]3(CCC(=O)[C@H]32)[C@@H](C)[C@@H]1O [BC 9842, 12-epi-12-desvinyl-14-O-[(Piperidin-4-ylsulfanyl]-acetyl]-12-[2-(3-methyl-pyrazin-2-yl)-ethenyl]-mutilin]",reduction of viral CPE,[6]; 5 μM,100%
same,reduction of viral CPE,[6]; 10 μM,100%
same,EC50,[6]; [28],1.92 µM
same,reduction of viral CPE,[7]; 5 μM,52.85%
same,reduction of viral CPE,[7]; 10 μM,69.33%
same,EC50,[7],4.58 µM
same,CC50 at 6 days,[8],22.4 µM
same,cytotoxic effect on the viability of the cell control,[9]; 5 μM,no cytotoxic effect
same,cytotoxic effect on the viability of the cell control,[9]; 10 μM,no cytotoxic effect
same,cytotoxic effect on the viability of the cell control,[9]; 50 μM,cytotoxic effect
same,EC50,"[10]; human respiratory syncytial virus, HEp-2",> 22400 nM
same,EC50,"[11]; human respiratory syncytial virus, HEp-2, HEp2 cells infected with RSV B18537, MOI 0.001",6.77 µM
same,CC50,[12],22.4 µM
same,reduction of viral CPE,"[13]; 10 μM, HeLa / Measles virus",69%
same,EC50,[13],5.36 µM
same,cytotoxic effect on the viability of the cell control,[14]; 5 μM,no cytotoxic effect
same,cytotoxic effect on the viability of the cell control,[14]; 10 μM,no cytotoxic effect
same,cytotoxic effect on the viability of the cell control,[14]; 50 μM,cytotoxic effect
same,CC50 at 6 days,[15],22.4 µM
same,CC50,[16],24.1 µM
same,MIC,[1]; [29],≤ 0.03 µg/mL
same,MIC,[2]; Staphylococcus aureus,1 to 2 µg/mL
same,MIC,[2]; [25],≤ 4 µg/mL
same,MIC,[3]; Staphylococcus aureus,4 µg/mL
same,MIC,[3]; [26],≤ 4 µg/mL
same,MIC,[4],≤ 0.03 µg/mL
same,MIC,[5]; Streptococcus agalactiae,0.5 to 1 µg/mL
same,MIC,[5]; [27],≤ 4 µg/mL
same,Metabolic stability against primary hepatocytes [% parent compound],[17],> 60%
same,Metabolic stability against primary hepatocytes [% parent compound],[17]; listed as BC-9842,> 60%
same,Metabolic stability against primary hepatocytes [% parent compound],[17]; listed as BC-¬9842,63.8%
same,Metabolic stability against primary hepatocytes [% parent compound],[18],> 20%
same,Metabolic stability against primary hepatocytes [% parent compound],[18]; listed as BC-9842,> 20%
same,Metabolic stability against primary hepatocytes [% parent compound],[18]; listed as BC-¬9842,24.7%
"C=C[C@]1(C)C[C@@H](OC(=O)CS[C@@H]2CC[C@@H](N)C[C@H]2O)[C@]2(C)[C@H](C)CC[C@]3(CCC(=O)[C@H]32)[C@@H](C)[C@@H]1O [Lefamulin, reference compound]",MIC,[1]; [29],≤ 0.03 µg/mL
same,MIC,[2]; Staphylococcus aureus,16 µg/mL
same,MIC,[3]; Staphylococcus aureus,8 µg/mL
same,MIC,[4],≤ 0.03 µg/mL
same,MIC,[5]; Streptococcus agalactiae,16 µg/mL
C=C[C@]1(C)C[C@@H](OC(=O)CO)[C@]2(C)[C@H](C)CC[C@]3(CCC(=O)[C@H]32)[C@@H](C)[C@@H]1O [Pleuromutilin],antiviral activity,[19],antiviral activity
same,antiviral activity,[20],did not show antiviral activity
same,CPE50 (concentration conferring 50% protection of the cytopathic effect induced by HSV-1),[21],15 µg/mL
same,EC50,[21]; read-out: CPE50 (concentration conferring 50% protection of the cytopathic effect induced by HSV-1),40 µM
same,activity against vesicular stomatitis virus,[22],activity
"CCC(CC)COC(=O)[C@H](C)N[P@](=O)(OC[C@H]1O[C@@](C#N)(c2ccc3c(N)ncnn23)[C@H](O)[C@@H]1O)Oc1ccccc1 [Remdesivir, reference compound]",EC50,[6],0.11 µM
same,CC50,[14]; human,> 5 µM
"NC(=O)c1ncn([C@@H]2O[C@H](CO)[C@@H](O)[C@H]2O)n1 [Ribavirin, reference compound]",EC50,[13],1.88 µg/mL
same,TC50,[23],21.6 µg/mL
"C=C[C@]1(C)C[C@@H](OC(=O)CSCCN(CC)CC)[C@]2(C)[C@H](C)CC[C@]3(CCC(=O)[C@H]32)[C@@H](C)[C@@H]1O [Tiamulin, reference compound]",reduction of viral CPE,[6]; 10 μM,10.53%
same,reduction of viral CPE,[6]; 50 μM,81.68%
same,EC50,[6]; [28],24.4 µM
same,reduction of viral CPE,[7]; 10 μM,16.76%
same,reduction of viral CPE,[7]; 50 μM,43.28%
same,EC50,[7],> 67.9 µM
same,viability (cell control),[9]; 10 μM,84%
same,viability (cell control),[9]; 50 μM,70.0%
same,cytotoxic effect on the viability of the cell control,[14]; 10 μM,no cytotoxic effect
same,cytotoxic effect on the viability of the cell control,[14]; 50 μM,cytotoxic effect
C=C[C@]1(C)C[C@@H](OC(=O)CSC(C)(C)CNC(=O)[C@H](N)C(C)C)[C@]2(C)[C@H](C)CC[C@]3(CCC(=O)[C@H]32)[C@@H](C)[C@@H]1O [Valnemulin],antiviral activity,[24],did not exhibit antiviral activity
TMC353121 [reference compound],EC50,"[10]; RSV A strain (RSV ALONG), HEp2, text, read-out: EC50",0.01 nM
same,EC50,"[11]; RSV B strain (RSV B18537), HEp2, text",1e-05 µM
